Source: DBAASP
Values after ≈ are worked out from the molar mass of the structure shown. Values belong to the compound of their own block, whether it stands above or below them.

How the values were obtained:
Experiment in all cases: ≥ marks a high value that may be exact or a test limit, other limits are often not marked, values filed in µg/mL are converted to µM
Staphylococcus aureus = test system: Staphylococcus aureus
[1] = test system: Staphylococcus aureus KO-4
[2] = test system: Staphylococcus aureus ATCC 6538P
Escherichia coli JM109 = test system: Escherichia coli JM109
[3] = test system: Trypanosoma brucei brucei GUT Tat3.1
[4] = test system: Trichophyton mentagrophytes IFO 5466
Pseudomonas aeruginosa = test system: Pseudomonas aeruginosa
Vibrio harveyi = test system: Vibrio harveyi
Streptococcus iniae = test system: Streptococcus iniae
[5] = test system: Streptococcus equinus BCRC 14729
[6] = test system: Pseudomonas aeruginosa BCRC 10944
[7] = test system: Escherichia coli BCRC 10675
[8] = test system: Vibrio anguillarum serotype O1
[9] = test system: Vibrio parahaemolyticus BCRC 10806
[10] = test system: Staphylococcus xylosus BCRC 12930
[11] = test system: Yersinia enterocolitica BCRC 13999
[12] = test system: Staphylococcus aureus BCRC 10780
[13] = test system: Klebsiella oxytoca BCRC 13985
[14] = test system: Listeria monocytogenes BCRC 14845
[15] = test system: Vibrio alginolyticus BCRC 12829
Vibrio alginolyticus = test system: Vibrio alginolyticus
[16] = test system: Staphylococcus aureus BCRC 10781
Lactococcus garvieae = test system: Lactococcus garvieae
[17] = test system: Klebsiella aerogenes BCRC 10370
[18] = test system: Enterobacter cloacae BCRC 10401
Vibrio parahaemolyticus = test system: Vibrio parahaemolyticus
[19] = test system: Escherichia coli IFO 3301
[20] = test system: Bacillus subtilis IFO 3336
[21] = test system: Vibrio alginolyticus ATCC 17749
[22] = test system: Micrococcus luteus ATCC 4698
[23] = test system: Staphylococcus aureus ATCC 25293
[24] = test system: Escherichia coli 363 ATCC 11775
[25] = test system: Salmonella enterica subsp. enterica serovar Newport
[26] = test system: Bacillus megaterium ATCC 17749
[27] = test system: Staphylococcus epidermidis ATCC 12228
Candida sp. = test system: Candida sp.
Fusarium oxysporum = test system: Fusarium oxysporum
[28] = test system: Vibrio metschnikovii NCTC 8483
Escherichia coli LEC001 = test system: Escherichia coli LEC001
[29] = test system: Pseudomonas aeruginosa NCTC 13437
[30] = test system: Klebsiella pneumoniae NCTC 13368
[31] = test system: Staphylococcus aureus USA 300
[32] = test system: Staphylococcus aureus ATCC 9144
[33] = test system: Acinetobacter baumannii AYE
[34] = test system: Escherichia coli NCTC 12923
[35] = test system: Pseudomonas aeruginosa PAO1
[36] = test system: Acinetobacter baumannii ATCC 17978

Structure (SMILES): CC[C@H](C)[C@H](NC(=O)[C@H](C)NC(=O)[C@H](CC(C)C)NC(=O)[C@H](Cc1ccc(O)cc1)NC(=O)[C@H](CC(C)C)NC(=O)[C@H](C)N)C(=O)N[C@@H](CCCN=C(N)N)C(=O)N[C@@H](CCCN=C(N)N)C(=O)N[C@@H](CCCN=C(N)N)C(N)=O [ALYLAIRRR]
MIC (Staphylococcus aureus): 21.2 µM (≈ 24 µg/mL) | MIC [1]: ≥ 530 µM | MIC [2]: 1.33 µM (≈ 1.5 µg/mL) | MIC (Escherichia coli JM109): 2.65 µM (≈ 3 µg/mL) | MIC [3]: ≥ 125 µM | MIC [4]: ≥ 53 µM | MIC (Pseudomonas aeruginosa): 354 µM (≈ 400 µg/mL)

Structure (SMILES): CC(C)C[C@@H]1NC(=O)[C@H](CCCN=C(N)N)NC(=O)[C@H](Cc2cnc[nH]2)NC(=O)[C@H](Cc2c[nH]c3ccccc23)NC(=O)CNC(=O)CNC(=O)[C@@H](N)CSSC[C@@H](C(=O)O)NC(=O)[C@H](CCCN=C(N)N)NC1=O [CGGWHRLRC]
MIC [21]: ≥ 75 µM | MIC [22]: 28 µM (≈ 30.4 µg/mL) | MIC [23]: ≥ 49 µM | MIC [24]: ≥ 75 µM | MIC [25]: ≥ 75 µM | MIC [26]: ≥ 51 µM | MIC [27]: 43 µM (≈ 46.7 µg/mL) | MIC (Candida sp.): ≥ 59 µM | MIC (Fusarium oxysporum): 30 µM (≈ 32.6 µg/mL) | MIC [28]: ≥ 75 µM

Continued, in another order:

MIC (Vibrio harveyi): 24.9 µM (≈ 64 µg/mL) | MIC (Streptococcus iniae): ≥ 49.9 µM | MIC [5]: ≥ 49.9 µM | MIC [6]: 24.9 µM (≈ 64 µg/mL) | MIC [7]: 24.9 µM (≈ 64 µg/mL) | MIC [8]: ≥ 49.9 µM | MIC [10]: 24.9 µM (≈ 64 µg/mL) | MIC [11]: ≥ 99.7 µM | MIC [12]: ≥ 49.9 µM | MIC [13]: ≥ 49.9 µM | MIC [14]: ≥ 49.9 µM | MIC [15]: 24.9 µM (≈ 64 µg/mL) | MIC (Vibrio alginolyticus): 24.9 µM (≈ 64 µg/mL) | MIC [16]: ≥ 49.9 µM | MIC (Lactococcus garvieae): ≥ 99.7 µM | MIC [17]: 24.9 µM (≈ 64 µg/mL) | MIC [18]: 24.9 µM (≈ 64 µg/mL)
Structure (SMILES): CC[C@H](C)[C@H](NC(=O)[C@H](Cc1ccc(O)cc1)NC(=O)[C@H](CCCCN)NC(=O)[C@H](Cc1ccc(O)cc1)NC(=O)[C@H](Cc1ccccc1)NC(=O)[C@H](CC(N)=O)NC(=O)[C@H](Cc1ccc(O)cc1)NC(=O)[C@@H](NC(=O)[C@H](Cc1ccc(O)cc1)NC(=O)[C@H](CCCCN)NC(=O)[C@H](C)NC(=O)[C@H](Cc1ccc(O)cc1)NC(=O)[C@H](CCCCN)NC(=O)[C@H](C)NC(=O)CN)[C@@H](C)CC)C(=O)N[C@@H](C)C(=O)N[C@@H](CCCCN)C(=O)N[C@@H](Cc1ccc(O)cc1)C(=O)N[C@H](C(=O)N[C@@H](Cc1c[nH]c2ccccc12)C(=O)O)[C@@H](C)CC [GAKYAKYIYNFYKYIAKYIW]
MIC [9]: 24.9 µM (≈ 64 µg/mL) | MIC (Vibrio parahaemolyticus): 24.9 µM (≈ 64 µg/mL)

MIC [19]: ≥ 506 µM | MIC [20]: ≥ 506 µM
Structure (SMILES): NCC(=O)N[C@@H](Cc1cnc[nH]1)C(=O)NCC(=O)N[C@@H](Cc1cnc[nH]1)C(=O)NCC(=O)N[C@@H](Cc1cnc[nH]1)C(=O)NCC(=O)N[C@@H](Cc1cnc[nH]1)C(=O)NCC(=O)N[C@@H](Cc1cnc[nH]1)C(=O)O [GHGHGHGHGH]

MIC (Escherichia coli LEC001): ≥ 55.1 µM | MIC [29]: ≥ 55.1 µM | MIC [30]: ≥ 55.1 µM | MIC [31]: ≥ 55.1 µM | MIC [32]: ≥ 55.1 µM | MIC [33]: ≥ 55.1 µM | MIC [34]: ≥ 55.1 µM | MIC [35]: > 55.1 µM | MIC [36]: ≥ 55.1 µM
Structure (SMILES): CC[C@H](C)[C@H](NC(=O)CNC(=O)[C@H](CO)NC(=O)[C@@H](N)Cc1c[nH]c2ccccc12)C(=O)N[C@@H](CCCN=C(N)N)C(=O)NCC(=O)N[C@@H](Cc1ccc(O)cc1)C(=O)N[C@@H](CCCCN)C(=O)NCC(=O)NCC(=O)N[C@@H](Cc1ccc(O)cc1)C(=O)N[C@@H](CCCCN)C(=O)NCC(=O)N[C@@H](CC(C)C)C(=O)N[C@@H](Cc1ccccc1)C(=O)N[C@@H](CCCCN)C(=O)N[C@@H](CCC(N)=O)C(=O)N[C@H](C(=O)N[C@@H](CC(N)=O)C(=O)N[C@@H](Cc1ccc(O)cc1)C(N)=O)[C@@H](C)O [WSGIRGYKGGYKGLFKQTNY]
